Key:
N1E-115 cells [1] = assay: Drug sensitivity (IC50) of N1E-115 cells; type: cell-based, murine; details: Mus musculus; N1E-115 cells (data not shown)
N1E-115 cells [2] = assay: Interphase declustering index (DI) in N1E-115 cells; type: cell-based, murine; details: 6-h treatment, 25 interphase cells, drugs at their respective IC50 concentrations
Description: To evaluate their effect on interphase clustering, N1E-115 cells were treated with these drugs at their respective IC50 concentrations for 0, 3, 6 and 9 h and co-immunostained for γ-tubulin and α-tubulin to evaluate centrosomal spread and microtubule nucleation status, respectively.
Cell cycle phases were further evaluated via lamin A/C immunostaining to distinguish interphase declustering events from prophase centrosomal spread. To quantitate the spread of the interphase centrosomal cluster, a 3D reconstruction of z-stack images of 25 randomly-selected interphase cells from the 6-h treatment group of each drug were generated. By defining an ROI (region of interest) around the interphase centrosomal cluster, the volume of the cluster spread was calculated using Volocity software. Likewise, defining an ROI using the cell periphery provided the cell volume.

N1E-115 cells [3] = assay: Neuritogenesis (neurite extension) in serum-starved N1E-115 cells; type: cell-based, murine
Description: N1E-115 cells grown in serum-starved (SS) medium were evaluated to determine the extent of neurite formation after 48 h of treatment with RedBr-Nos (5 μM), Griseofulvin (10 μM), PJ-34 (10 μM), Paclitaxel (0.05 μM) treatment or untreated control cells (i.e., serum-starved medium (SS) alone). Panels Ai and Aii depict quantitative bar graphs representing the average length of neurites and percentage of population of cells showing neurite length >10 μm, respectively. A hundred cells were counted in each case. […] Panel B depicts an immunoblot showing CLASP1 expression levels in control (C) and CLASP1 siRNA-transfected N1E-115 cells.
Neuritogenesis is a process in nerve cells involving the extension of polarized, elongated neurites. N1E-115 cells usually extend only one major neurite per cell, which can vary in length from 5 to 500 μm. The growth cones of the neurites serve as primary focal points of motility. The effect of declustering agents on cell motility was evaluated by assessing the length and frequency of neurites formed in a serum-free medium on a laminin-coated surface.

N1E-115 cells [4] = assay: Golgi (GM130) and γ-tubulin co-immunostaining of drug-treated N1E-115 cells; type: cell-based, murine; details: data not shown
Excerpt: The Golgi, which is primarily responsible for posttranslational modification and protein sorting, also functions as a microtubule-organizing center (MTOC). It has been hypothesized that supernumerary centrosomes may better organize the Golgi to enhance directional cell migration. To investigate what happens to the Golgi upon declustering drug-induced dispersal of the interphase centrosomal cluster, drug-treated N1E-115 cells were co-immunostained with GM130 (a cis-Golgi matrix protein crucial for maintaining its structure) and γ-tubulin.

N1E-115 cells [5] = assay: Vinculin localization in serum-starved N1E-115 cells; type: cell-based, murine; details: serum-starved (SS) cells
Excerpt: Vinculin stabilizes cell-substrate contacts in neuronal cells undergoing neuritogenesis, while activation by actin-binding proteins mobilizes vinculin to focal adhesions. To determine the localization of vinculin in the neurite extensions and the effect of declustering agents on its localization, N1E-115 cells were immunostained cells for vinculin and stained F-actin using rhodamine-phalloidin.

MDA-MB-231 (231) cells = assay: Peak subG1 fraction by flow cytometry (propidium iodide) after declustering drugs, 231 cells; type: cell-based, human
Description: (§1) To evaluate the impact of putative declustering drugs on cell cycle progression and hypodiploidy (<2N DNA content, which may indicate apoptotic cells), MDA-MB-231 (231), PC3, and HeLa cells were treated with different concentrations of declustering drugs, stained with propidium iodide, labeled with anti-MPM2 antibody, and then assessed by flow cytometry at multiple time points over 48 hr. […] The duration, highest degree, and rapidity of onset of MA varied between drugs, drug concentrations, and cell lines (data not shown). In general, the maximum MA achieved was less pronounced in Nos- and PJ-treated cells. Drug-induced onset of MA was corroborated by substantial increases in cyclin B1 levels in all cell lines. For most cases, prolonged MA (˜24 hr in duration) was followed by a substantial increase in the subG1 population fraction. […] Instances where the subGl fraction was elevated without cleaved caspase-3 may either represent caspase-independent cell death or the presence of hypodiploid cells whose fate is unclear. In general, no consistent associations between the extent, duration, or timing of MA within drugs or across cell lines was found.

HeLa cells = assay: Peak subG1 fraction by flow cytometry after declustering drugs, HeLa cells; type: cell-based
Description: as §1

PC3 cells = assay: Peak subG1 fraction by flow cytometry after declustering drugs, PC3 cells; type: cell-based
Description: as §1

[6] = tested on: adult human dermal fibroblasts (HDFs); assay: Peak subG1 fraction after declustering drugs, non-malignant HDFs; type: cell-based; details: for Peak subG1 percents over 48 h: HDF; for death in cancer cell lines vs. HDFs: both concentrations
Description: as §1
(§2) To determine whether the CA-inducing activity of declustering drugs is restricted to cancer cells, two non-malignant cell lines, mammary fibrocystic (MCF10A) cells and adult human dermal fibroblasts (HDFs) were treated with these drugs. […] In comparison, 10 and 25 µM RBN increased peak CA over controls in interphase cells (p<0.001 and p=0.001, respectively), with the lower concentration dramatically augmenting peak CA to 56% of cells versus 15% for the higher dose (FIG. 13, panel B).
In HDFs, all the drugs tested increased peak subG1 over controls in a significant fashion (p<0.01 for all) (Table 2). […] Thus, it appears that there may be clinically relevant therapeutic windows for these drugs depending on the type of cancer and the drug dosage.

[7] = tested on: mammary fibrocystic (MCF10A) cells; assay: Peak subG1 fraction after declustering drugs, non-malignant MCF10A cells; type: cell-based; details: for peak subG1 percent compared to controls: MCF10A cells; for Peak subG1 percents over 48 h: MCF10A
Description: as §1, §2
Importantly, a therapeutic window exists for several of these agents at the concentrations and in the cell lines tested compared to cancer cells.

231 cells = assay: Centrosome amplification (CA) by microscopy (γ-tubulin/centrin-2 foci), 231 cells; type: cell-based, human; details: 231 cells, 25 μM
Description: Consequently, CA was assessed in cultures treated with different concentrations of declustering drugs for 6, 12, 18, or 24 h and untreated controls via microscopy. Centrosomes were identified by γ-tubulin and centrin-2 colocalization at discrete foci. […] The peak percent CA detected over 24 h is shown in FIG. 13 (only statistically significant (P<0.05) increases over control values are represented in the Figures). To better understand the “potency” of drug-induced CA with time, the average fold change in CA over controls over 24 h was assessed (FIG. 12, panel A), whereby the extent of CA across time points (i.e., 6, 12, 18, and 24 hr) was averaged and then divided by the extent of CA in control (i.e., 0 hr). All of the drugs at least doubled the peak extent of CA in all cell lines tested (FIG. 12, panel A), although the final extent of CA could be small or large in magnitude depending on the initial centrosomal burden as shown in FIG. 11. […] The peak extent in interphase HeLa cells was somewhat less at 30.7% and 48.1% for 10 and 25 μM RBN, respectively (FIG. 13, panel A). For Nos and BN, there was no major difference in CA levels in interphase versus mitotic cells.

MCF10A cells = assay: Centrosome amplification (CA) by microscopy, MCF10A cells; type: cell-based; details: for CA / peak extent of CA versus control levels: interphase and mitotic MCF10A cells, both concentrations (10 and 25 μM), over 24 h
Description: (§3) Consequently, CA was assessed in cultures treated with different concentrations of declustering drugs for 6, 12, 18, or 24 h and untreated controls via microscopy. Centrosomes were identified by γ-tubulin and centrin-2 colocalization at discrete foci.
as §2

[8] = tested on: adult human dermal fibroblasts (HDFs); assay: Centrosome amplification (CA) by microscopy, HDFs; type: cell-based; details: for extent of CA over controls: HDFs, any of the concentrations or time points assessed
Description: as §3, §2

[9] = tested on: PLK4, Cyclin E, and Aurora A; assay: Western blotting of markers of centrosome amplification; type: cell-based; details: 231 cells, 25 μM
N1E-115 cells [10] = assay: Ki67 and cleaved caspase-3 immunostaining of serum-starved N1E-115 cells; type: cell-based, murine; details: RedBr-Nos 5 μM, Griseofulvin 10 μM, PJ-34 10 μM
[11] = tested on: ZR-75-30 cells with amplified centrosomes (ZR-A); assay: Sub-G1 population in ZR-75-30 cells with amplified centrosomes (ZR-A) versus parent cells; type: cell-based; details: 25 μM, 48 h
Description: Panel A depicts representative DNA histograms comparing cell-cycle kinetics of ZR-75-30 cells and ZR-A cells treated with bromonoscapine (BN, 25 μM), griseofulvin (GF, 25 μM) or PJ34 (25 μM), respectively for 48 h. […] Panel B depicts a quantitative comparison of sub-G1 population in ZR-75-30 and ZR-A cells upon treatment with the three drugs with the same concentration (25 μM) for the same duration (48 h).
Accordingly, these cells can be pharmacologically manipulated with aphidicolin to generate extra centrosomes. […] Following aphidicolin wash-out, cells were stained using anti-centrin-2 antibodies to verify extra centrosomes by immunofluorescence confocal microscopy. About ˜60% ZR-75-30 cells generated extra centrosomes (6-8 per cell) and were evaluated for their sensitivity to the three drugs, griseofulvin, bromonoscapine, and PJ34, and compared with parent ZR-75-30 cells with normal centrosomes.

Row | Structure (SMILES) | IC50 (N1E-115 cells [1]) [µM] | interphase declustering index (DI): ratio of average cluster volume to average cell volume (N1E-115 cells [2]) | fragmentation of the interphase Golgi complex (N1E-115 cells [4]) | vinculin localization and focal adhesion points (N1E-115 cells [5]) | Peak subG1 percents over 48 h (MDA-MB-231 (231) cells; 10 μM) [%] | Peak subG1 percents over 48 h (MDA-MB-231 (231) cells; 25 μM) [%] | Peak subG1 percents over 48 h (HeLa cells; 10 μM) [%] | Peak subG1 percents over 48 h (HeLa cells; 25 μM) [%] | Peak subG1 percents over 48 h (PC3 cells; 10 μM) [%] | Peak subG1 percents over 48 h (PC3 cells; 25 μM) [%] | Peak subG1 percents over 48 h ([6]; 10 μM) [%] | Peak subG1 percents over 48 h ([6]; 25 μM) [%] | death in cancer cell lines vs. HDFs [6] | peak subG1 percent compared to controls [7] | Peak subG1 percents over 48 h ([7]; 10 μM) [%] | Peak subG1 percents over 48 h ([7]; 25 μM) [%] | CA / peak extent of CA versus control levels (MCF10A cells) | extent of CA over controls [8] | maximum (peak) subG1 fraction relative to control (MDA-MB-231 (231) cells; 25 μM) [× control] | sub-G1 population versus parent ZR-75-30 cells [11] | also measured
1 | CC(=O)O[C@H]1C(=O)[C@@]2(C)[C@H]([C@H](OC(=O)c3ccccc3)[C@]3(O)C[C@H](OC(=O)[C@H](O)[C@@H](NC(=O)c4ccccc4)c4ccccc4)C(C)=C1C3(C)C)[C@]1(OC(C)=O)CO[C@@H]1C[C@@H]2O [Paclitaxel, paclitaxel] | 0.05 | 0.08 | interphase Golgi complex fragmented | less severe | – | – | – | – | – | – | – | – | – | – | – | – | – | – | – | – | inhibition of neurite extension (N1E-115 cells [3]; 48 h, PJ-34 10 μM, Paclitaxel 0.05 μM): moderate inhibition
2 | COc1ccc2c(c1OC)C(=O)O[C@@H]2[C@H]1c2c(cc3c(c2OC)OCO3)CCN1C [Nos, noscapine] | – | – | – | – | 26.3 | 43.9 | 25.0 | 50.1 | 29.9 | 32.7 | 14.8 | 11.2 | more death in all cancer cell lines vs. HDFs | did not cause a significant increase | 4.1 | 4.2 | neither concentrations of Nos or BN significantly increased CA over control levels | did not significantly increase the extent of CA over controls | – | – | induction of CA (231 cells): failed to induce significant CA; expression levels of Cyclin E and PLK4 [9]: surge in the expression levels of Cyclin E and PLK4
3 | COC1=CC(=O)C[C@@H](C)[C@]12Oc1c(Cl)c(OC)cc(OC)c1C2=O [GF, griseofulvin] | 25 | 0.28 | most robust effect | complete internalization of vinculin and complete loss of focal adhesion points | – | 62.0 | – | 59.5 | – | 33.7 | – | 32.9 | more death in 231 and HeLa cells | did increase peak SubG1 | – | 22.7 | – | – | 6.4 | much higher sub-G1 population compared to parent ZR-75-30 cells | Peak subG1 percents over 48 h (MDA-MB-231 (231) cells; 50 μM): 60.0%; Peak subG1 percents over 48 h (HeLa cells; 50 μM): 79.0%; maximum (peak) subG1 fraction relative to control (HeLa cells; 50 μM): 4.3 × control; Peak subG1 percents over 48 h (PC3 cells; 50 μM): 39.5%; maximum (peak) subG1 fraction relative to control (PC3 cells; 50 μM): 16.3 × control; Peak subG1 percents over 48 h ([6]; 50 μM): 38.3%; susceptibility / toxicity in MCF10A cells versus cancer cell lines ([7]; 25 μM): All cancer cell lines were found to be more susceptible; susceptibility of MCF10A cells versus cancer cell lines ([7]; 50 μM): MCF10A and PC3 cells were equally susceptible; Peak subG1 percents over 48 h ([7]; 50 μM): 35.1%; peak interphase CA (MCF10A cells; interphase MCF10A cells, 25 and 50 μM): 13-16%; CA in mitotic cells versus controls (MCF10A cells; mitotic MCF10A cells, 25 and 50 μM): no increase was observed; peak CA ([8]; interphase HDFs only, 25 and 50 μM): 14-15%; inhibition at 10 µM (N1E-115 cells [3]; Mus musculus, N1E-115, 48 h, RedBr-Nos 5 μM, Griseofulvin 10 μM): 70 to 80%; Ki67-positive cells (N1E-115 cells [10]): high proportion of Ki67-positive cells
4 | COc1ccc2c(c1OC)C(=O)O[C@@H]2[C@H]1c2c(c(Br)c3c(c2OC)OCO3)CCN1C [BN, bromonoscapine] | – | – | – | – | 32.5 | 65.2 | 42.0 | 54.9 | 46.0 | 42.8 | 16.5 | 20.4 | the same was true for 231 and PC3 cells | did not cause a significant increase | 3.5 | 3.0 | neither concentrations of Nos or BN significantly increased CA over control levels | did not significantly increase the extent of CA over controls | 9.3 | much higher sub-G1 population compared to parent ZR-75-30 cells | maximum (peak) subG1 fraction relative to control (HeLa cells; 25 μM): 4.4 × control; maximum (peak) subG1 fraction relative to control (PC3 cells; 25 μM): 9.2 × control

Reference: US10242153B2, “Method for determining the risk profile of neoplastic tissue” (NOVAZOI THERANOSTICS, priority 2014, dated 2019)
